According to the supplement of paper PMC9549728:
Where a name gives a salt, the structure may show the parent alone.

The molecules below were run on murine gastric organoid WNT-activated (Apc fl/fl; Tp53 R172H) (assay: IC50 (viability, PrestoBlue) (log10 nM)). Conditions: exposure time: 72 h.
In short: (§1)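 Compounds diluted in DMSO were pre-spotted into 384-well plates at nine final concentrations (6.7–25,004 nM), and mechanically dissociated murine gastric corpus organoids, uninduced or Cre-induced (RAS-activated, WNT-activated, diffuse), were seeded in 15 μl Matrigel with 45 μl medium on top for 72 h. Viability was then read as fluorescence at 560/590 nm after 3 h at 37°C with 1× final PrestoBlue. IC50 values were derived by non-linear regression in Prism and are given in log10 nM, averaged over three passages with two wells each.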
`CC1=C(/C=C/C(C)=C/C=C/C(C)=C/C(=O)O)C(C)(C)CCC1` [Retinoic acid] was tested, and the “IC50 (log10 nM)” value was 3.82. For `Nc1ccn([C@@H]2O[C@H](CO)[C@@H](O)[C@@H]2O)c(=O)n1` [Cytarabine], the “IC50 (log10 nM)” value was 2.9. In the case of `S=P(N1CC1)(N1CC1)N1CC1` [Thio-TEPA], the “IC50 (log10 nM)” value is reported as 4.16. In the case of `COc1c(OCCCN2CCOCC2)ccc2c1N=C(NC(=O)c1cnc(N)nc1)N1CCN=C21` [Copanlisib], the “IC50 (log10 nM)” value is reported as 1.96. In the case of `CC[C@@]1(O)C(=O)OCc2c1cc1n(c2=O)Cc2cc3c(CN(C)C)c(O)ccc3nc2-1` [Topotecan hydrochloride], the “IC50 (log10 nM)” value is reported as 2.36. With `CC(C)Nc1cc(-c2c[nH]c(C(=O)N[C@H](CO)c3cccc(Cl)c3)c2)c(Cl)cn1` [Ulixertinib] the “IC50 (log10 nM)” value was 2.96. For `O=C1c2c(O)ccc(O)c2C(=O)c2c(NCCNCCO)ccc(NCCNCCO)c21` [Mitoxantrone dihydrochloride], the “IC50 (log10 nM)” value was 3.38. For `COc1cccc2c1C(=O)c1c(O)c3c(c(O)c1C2=O)C[C@@](O)(C(=O)CO)C[C@@H]3O[C@H]1C[C@H](N)[C@H](O)[C@H](C)O1` [Doxorubicin], the “IC50 (log10 nM)” value was 2.2. `CNC(=O)[C@@H](NC(=O)[C@H](CC(C)C)[C@H](O)C(=O)NO)C(C)(C)C` [Marimastat] was tested, and the “IC50 (log10 nM)” value was 4.02. With `CCCCC(=O)OCC(=O)[C@]1(O)Cc2c(O)c3c(c(O)c2[C@@H](O[C@H]2C[C@H](NC(=O)C(F)(F)F)[C@H](O)[C@H](C)O2)C1)C(=O)c1c(OC)cccc1C3=O` [Valrubicin] the “IC50 (log10 nM)” value was 2.65. In the case of `COc1cc(Nc2c(C#N)cnc3cc(OCCCN4CCN(C)CC4)c(OC)cc23)c(Cl)cc1Cl` [Bosutinib], the “IC50 (log10 nM)” value is reported as 3.01. With `Cn1cncc1[C@@](N)(c1ccc(Cl)cc1)c1ccc2c(c1)c(-c1cccc(Cl)c1)cc(=O)n2C` [Tipifarnib] the “IC50 (log10 nM)” value was 3.16. In the case of `Nc1ccn([C@@H]2O[C@H](CO)[C@@H](O)C2(F)F)c(=O)n1` [Gemcitabine], the “IC50 (log10 nM)” value is reported as 1.74. `COc1cc(OC)c(/C=C/S(=O)(=O)Cc2ccc(OC)c(NCC(=O)O)c2)c(OC)c1` [Rigosertib sodium] was tested, and the “IC50 (log10 nM)” value was 2.01.

These molecules were tested on murine gastric organoid RAS-activated (Kras G12D; Tp53 R172H) (assay: IC50 (viability, PrestoBlue) (log10 nM)). Conditions: exposure time: 72 h.
In short: as §1
`CC1=C(/C=C/C(C)=C/C=C/C(C)=C/C(=O)O)C(C)(C)CCC1` [Retinoic acid] was tested, and the “IC50 (log10 nM)” value was 0.928. `Nc1ccn([C@@H]2O[C@H](CO)[C@@H](O)[C@@H]2O)c(=O)n1` [Cytarabine] was tested, and the “IC50 (log10 nM)” value was 2.07. In the case of `S=P(N1CC1)(N1CC1)N1CC1` [Thio-TEPA], the “IC50 (log10 nM)” value is reported as 4.17. In the case of `COc1c(OCCCN2CCOCC2)ccc2c1N=C(NC(=O)c1cnc(N)nc1)N1CCN=C21` [Copanlisib], the “IC50 (log10 nM)” value is reported as 2. With `CC[C@@]1(O)C(=O)OCc2c1cc1n(c2=O)Cc2cc3c(CN(C)C)c(O)ccc3nc2-1` [Topotecan hydrochloride] the “IC50 (log10 nM)” value was 1.68. In the case of `CC(C)Nc1cc(-c2c[nH]c(C(=O)N[C@H](CO)c3cccc(Cl)c3)c2)c(Cl)cn1` [Ulixertinib], the “IC50 (log10 nM)” value is reported as 3.09. With `O=C1c2c(O)ccc(O)c2C(=O)c2c(NCCNCCO)ccc(NCCNCCO)c21` [Mitoxantrone dihydrochloride] the “IC50 (log10 nM)” value was 2.2. `COc1cccc2c1C(=O)c1c(O)c3c(c(O)c1C2=O)C[C@@](O)(C(=O)CO)C[C@@H]3O[C@H]1C[C@H](N)[C@H](O)[C@H](C)O1` [Doxorubicin] was tested, and the “IC50 (log10 nM)” value was 2.14. `CNC(=O)[C@@H](NC(=O)[C@H](CC(C)C)[C@H](O)C(=O)NO)C(C)(C)C` [Marimastat] was tested, and the “IC50 (log10 nM)” value was less than 0.826. With `CCCCC(=O)OCC(=O)[C@]1(O)Cc2c(O)c3c(c(O)c2[C@@H](O[C@H]2C[C@H](NC(=O)C(F)(F)F)[C@H](O)[C@H](C)O2)C1)C(=O)c1c(OC)cccc1C3=O` [Valrubicin] the “IC50 (log10 nM)” value was 2.49. For `COc1cc(Nc2c(C#N)cnc3cc(OCCCN4CCN(C)CC4)c(OC)cc23)c(Cl)cc1Cl` [Bosutinib], the “IC50 (log10 nM)” value was 3.57. `Cn1cncc1[C@@](N)(c1ccc(Cl)cc1)c1ccc2c(c1)c(-c1cccc(Cl)c1)cc(=O)n2C` [Tipifarnib] was tested, and the “IC50 (log10 nM)” value was less than 0.826. `Nc1ccn([C@@H]2O[C@H](CO)[C@@H](O)C2(F)F)c(=O)n1` [Gemcitabine] was tested, and the “IC50 (log10 nM)” value was 1.54. `COc1cc(OC)c(/C=C/S(=O)(=O)Cc2ccc(OC)c(NCC(=O)O)c2)c(OC)c1` [Rigosertib sodium] was tested, and the “IC50 (log10 nM)” value was 1.35.

The molecules below were run on murine normal gastric organoid (assay: IC50 (viability, PrestoBlue) (log10 nM)). Conditions: exposure time: 72 h.
In short: as §1
For `CC1=C(/C=C/C(C)=C/C=C/C(C)=C/C(=O)O)C(C)(C)CCC1` [Retinoic acid], the “IC50 (log10 nM)” value was greater than 4.4. In the case of `Nc1ccn([C@@H]2O[C@H](CO)[C@@H](O)[C@@H]2O)c(=O)n1` [Cytarabine], the “IC50 (log10 nM)” value is reported as 2.33. With `S=P(N1CC1)(N1CC1)N1CC1` [Thio-TEPA] the “IC50 (log10 nM)” value was 4.21. For `COc1c(OCCCN2CCOCC2)ccc2c1N=C(NC(=O)c1cnc(N)nc1)N1CCN=C21` [Copanlisib], the “IC50 (log10 nM)” value was 1.94. In the case of `CC[C@@]1(O)C(=O)OCc2c1cc1n(c2=O)Cc2cc3c(CN(C)C)c(O)ccc3nc2-1` [Topotecan hydrochloride], the “IC50 (log10 nM)” value is reported as 1.48. In the case of `CC(C)Nc1cc(-c2c[nH]c(C(=O)N[C@H](CO)c3cccc(Cl)c3)c2)c(Cl)cn1` [Ulixertinib], the “IC50 (log10 nM)” value is reported as 2.79. `O=C1c2c(O)ccc(O)c2C(=O)c2c(NCCNCCO)ccc(NCCNCCO)c21` [Mitoxantrone dihydrochloride] was tested, and the “IC50 (log10 nM)” value was 2.13. For `COc1cccc2c1C(=O)c1c(O)c3c(c(O)c1C2=O)C[C@@](O)(C(=O)CO)C[C@@H]3O[C@H]1C[C@H](N)[C@H](O)[C@H](C)O1` [Doxorubicin], the “IC50 (log10 nM)” value was 2.02. `CNC(=O)[C@@H](NC(=O)[C@H](CC(C)C)[C@H](O)C(=O)NO)C(C)(C)C` [Marimastat] was tested, and the “IC50 (log10 nM)” value was 4.37. For `CCCCC(=O)OCC(=O)[C@]1(O)Cc2c(O)c3c(c(O)c2[C@@H](O[C@H]2C[C@H](NC(=O)C(F)(F)F)[C@H](O)[C@H](C)O2)C1)C(=O)c1c(OC)cccc1C3=O` [Valrubicin], the “IC50 (log10 nM)” value was 2.43. `COc1cc(Nc2c(C#N)cnc3cc(OCCCN4CCN(C)CC4)c(OC)cc23)c(Cl)cc1Cl` [Bosutinib] was tested, and the “IC50 (log10 nM)” value was 3.96. In the case of `Cn1cncc1[C@@](N)(c1ccc(Cl)cc1)c1ccc2c(c1)c(-c1cccc(Cl)c1)cc(=O)n2C` [Tipifarnib], the “IC50 (log10 nM)” value is reported as 2.96. `Nc1ccn([C@@H]2O[C@H](CO)[C@@H](O)C2(F)F)c(=O)n1` [Gemcitabine] was tested, and the “IC50 (log10 nM)” value was 1.23. With `COc1cc(OC)c(/C=C/S(=O)(=O)Cc2ccc(OC)c(NCC(=O)O)c2)c(OC)c1` [Rigosertib sodium] the “IC50 (log10 nM)” value was 1.86.

Each molecule was assayed on murine gastric organoid diffuse (Cdh1 fl/fl; Apc fl/fl) (assay: IC50 (viability, PrestoBlue) (log10 nM)). Conditions: exposure time: 72 h.
In short: as §1
For `CC1=C(/C=C/C(C)=C/C=C/C(C)=C/C(=O)O)C(C)(C)CCC1` [Retinoic acid], the “IC50 (log10 nM)” value was greater than 4.4. For `Nc1ccn([C@@H]2O[C@H](CO)[C@@H](O)[C@@H]2O)c(=O)n1` [Cytarabine], the “IC50 (log10 nM)” value was 2.71. In the case of `S=P(N1CC1)(N1CC1)N1CC1` [Thio-TEPA], the “IC50 (log10 nM)” value is reported as greater than 4.4. `COc1c(OCCCN2CCOCC2)ccc2c1N=C(NC(=O)c1cnc(N)nc1)N1CCN=C21` [Copanlisib] was tested, and the “IC50 (log10 nM)” value was 2.23. `CC[C@@]1(O)C(=O)OCc2c1cc1n(c2=O)Cc2cc3c(CN(C)C)c(O)ccc3nc2-1` [Topotecan hydrochloride] was tested, and the “IC50 (log10 nM)” value was 2.4. `CC(C)Nc1cc(-c2c[nH]c(C(=O)N[C@H](CO)c3cccc(Cl)c3)c2)c(Cl)cn1` [Ulixertinib] was tested, and the “IC50 (log10 nM)” value was 3.42. For `O=C1c2c(O)ccc(O)c2C(=O)c2c(NCCNCCO)ccc(NCCNCCO)c21` [Mitoxantrone dihydrochloride], the “IC50 (log10 nM)” value was 2.41. In the case of `COc1cccc2c1C(=O)c1c(O)c3c(c(O)c1C2=O)C[C@@](O)(C(=O)CO)C[C@@H]3O[C@H]1C[C@H](N)[C@H](O)[C@H](C)O1` [Doxorubicin], the “IC50 (log10 nM)” value is reported as 2.23. With `CNC(=O)[C@@H](NC(=O)[C@H](CC(C)C)[C@H](O)C(=O)NO)C(C)(C)C` [Marimastat] the “IC50 (log10 nM)” value was greater than 4.4. For `CCCCC(=O)OCC(=O)[C@]1(O)Cc2c(O)c3c(c(O)c2[C@@H](O[C@H]2C[C@H](NC(=O)C(F)(F)F)[C@H](O)[C@H](C)O2)C1)C(=O)c1c(OC)cccc1C3=O` [Valrubicin], the “IC50 (log10 nM)” value was 2.58. With `COc1cc(Nc2c(C#N)cnc3cc(OCCCN4CCN(C)CC4)c(OC)cc23)c(Cl)cc1Cl` [Bosutinib] the “IC50 (log10 nM)” value was 3.58. In the case of `Cn1cncc1[C@@](N)(c1ccc(Cl)cc1)c1ccc2c(c1)c(-c1cccc(Cl)c1)cc(=O)n2C` [Tipifarnib], the “IC50 (log10 nM)” value is reported as 3.73. With `Nc1ccn([C@@H]2O[C@H](CO)[C@@H](O)C2(F)F)c(=O)n1` [Gemcitabine] the “IC50 (log10 nM)” value was 1.53. With `COc1cc(OC)c(/C=C/S(=O)(=O)Cc2ccc(OC)c(NCC(=O)O)c2)c(OC)c1` [Rigosertib sodium] the “IC50 (log10 nM)” value was 1.55.
